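Interpolation was linear, between the two tested concentrations surrounding the appropriate level; five concentrations were tested over 48 hours in 96-well plates. GI50 = concentration required for 50% inhibition of growth. TGI: total growth inhibition.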
What was measured:
Assay in all cases: NCI tumour cell line growth inhibition, 48 h
[1] = system: 786-0 renal
[2] = system: SK-MEL-5 melanoma
[3] = system: HOP-92 NSCLC
[4] = system: OVCAR-5 ovarian
[5] = system: M14 melanoma
[6] = system: HCC-2998 colon
[7] = system: SF-539 CNS
[8] = system: SR leukemia
[9] = system: MALME-3M melanoma
[10] = system: MDA-MB-231 breast
[11] = system: CCRF-CEM leukemia
[12] = system: SNB-19 CNS
[13] = system: HCT-15 colon
[14] = system: UACC-257 melanoma
[15] = system: HCT-116 colon
[16] = system: NCI/ADR-RES ovarian
[17] = system: HT29 colon
[18] = system: HS 578T breast
[19] = system: OVCAR-4 ovarian
[20] = system: LOX IMVI melanoma
[21] = system: NCI-H522 lung
[22] = system: UACC-62 melanoma
[23] = system: HL-60(TB) leukemia
[24] = system: ACHN renal
[25] = system: A498 renal
[26] = system: A549 NSCLC
[27] = system: SF-295 CNS
[28] = system: T-47D breast
[29] = system: MCF7 breast
[30] = system: MOLT-4 leukemia
[31] = system: NCI-H23 lung
[32] = system: IGROV1 ovarian
[33] = system: DU-145 prostate
[34] = system: TK-10 renal
[35] = system: CAKI-1 renal
[36] = system: SNB-75 CNS
[37] = system: EKVX NSCLC
[38] = system: NCI-H226 lung
[39] = system: SN12C renal
[40] = system: SK-MEL-28 melanoma
[41] = system: HOP-62 NSCLC
[42] = system: SF-268 CNS
[43] = system: SK-OV-3 ovarian
[44] = system: RXF 393 renal
[45] = system: SK-MEL-2 melanoma
[46] = system: MDA-MB-435
[47] = system: COLO 205 colon
[48] = system: OVCAR-3 ovarian
[49] = system: OVCAR-8 ovarian
[50] = system: UO-31 renal
[51] = system: K-562 leukemia
[52] = system: RPMI-8226 leukemia
[53] = system: KM12 colon
[54] = system: MDA-N
[55] = system: SW-620 colon
[56] = system: NCI-H460 lung
[57] = system: U251 CNS
[58] = system: PC-3 prostate
[59] = system: BT-549 breast

For `COc1ccc(/C=C2/C(=O)N(/C=C3\C(=O)Oc4ccccc4C3=O)C(=NC(C)=O)N2C)cc1OC`, the TGI [1] was over 100 µM, the TGI [2] was over 100 µM and the GI50 [3] was over 100 µM. The TGI [3] was over 100 µM, the TGI [4] was over 100 µM and the TGI [5] was over 100 µM. For the same compound, the TGI [6] was over 100 µM, the TGI [7] was over 100 µM and the TGI [8] was over 100 µM. For the same compound, the TGI [9] was over 100 µM, the TGI [10] was over 100 µM and the TGI [11] was over 100 µM. It also gave a GI50 [12] of over 100 µM, a TGI [12] of over 100 µM and a TGI [13] of over 100 µM. It also gave a TGI [14] of over 100 µM, a TGI [15] of over 100 µM and a TGI [16] of over 100 µM. The TGI [17] was over 100 µM, the TGI [18] was over 100 µM and the TGI [19] was over 100 µM. The TGI [20] was over 100 µM, the TGI [21] was over 100 µM and the TGI [22] was over 100 µM. The TGI [23] was over 100 µM, the TGI [24] was over 100 µM and the GI50 [25] was over 100 µM. It also gave a TGI [25] of over 100 µM, a TGI [26] of over 100 µM and a TGI [27] of over 100 µM. The TGI [28] was over 100 µM, the TGI [29] was over 100 µM and the TGI [30] was over 100 µM. The TGI [31] was over 100 µM, the TGI [32] was over 100 µM and the TGI [33] was over 100 µM. It also gave a GI50 [34] of over 100 µM, a TGI [34] of over 100 µM and a TGI [35] of over 100 µM. The TGI [36] was over 100 µM, the TGI [37] was over 100 µM and the TGI [38] was over 100 µM. For the same compound, the TGI [39] was over 100 µM, the TGI [40] was over 100 µM and the TGI [41] was over 100 µM. For the same compound, the TGI [42] was over 100 µM, the TGI [43] was over 100 µM and the TGI [44] was over 100 µM. It also gave a TGI [45] of over 100 µM, a TGI [46] of over 100 µM and a TGI [47] of over 100 µM. It also gave a TGI [48] of over 41.7 µM, a TGI [49] of over 100 µM and a GI50 [50] of over 100 µM. The TGI [50] was over 100 µM, the TGI [51] was over 100 µM and the TGI [52] was over 100 µM. For the same compound, the TGI [53] was over 100 µM, the TGI [54] was over 100 µM and the TGI [55] was over 100 µM. For the same compound, the TGI [56] was over 100 µM, the TGI [57] was over 100 µM and the TGI [58] was over 100 µM.

In the case of `CNc1cc(Cl)ccc1C(=O)N1CCC[C@H]1CO`, the TGI [1] is reported as over 100 µM, the TGI [2] is reported as over 100 µM and the TGI [4] is reported as over 100 µM. The TGI [5] was over 100 µM, the TGI [59] was over 100 µM and the TGI [7] was over 100 µM. It also gave a TGI [9] of over 100 µM, a TGI [10] of over 100 µM and a TGI [11] of over 100 µM. For the same compound, the TGI [12] was over 100 µM, the TGI [13] was over 100 µM and the TGI [14] was over 100 µM. For the same compound, the TGI [15] was over 100 µM, the TGI [16] was over 100 µM and the TGI [17] was over 100 µM. The TGI [18] was over 100 µM, the TGI [19] was over 100 µM and the TGI [20] was over 100 µM. It also gave a TGI [21] of over 100 µM, a TGI [22] of over 100 µM and a TGI [23] of over 100 µM. It also gave a TGI [24] of over 100 µM, a TGI [25] of over 100 µM and a TGI [26] of over 100 µM. For the same compound, the TGI [27] was over 100 µM, the TGI [28] was over 100 µM and the TGI [29] was over 100 µM. For the same compound, the TGI [30] was over 100 µM, the TGI [31] was over 100 µM and the TGI [32] was over 100 µM. The TGI [33] was over 100 µM, the TGI [34] was over 100 µM and the TGI [35] was over 100 µM. It also gave a TGI [36] of over 100 µM, a TGI [37] of over 100 µM and a TGI [38] of over 100 µM. For the same compound, the TGI [39] was over 100 µM, the TGI [40] was over 100 µM and the TGI [41] was over 100 µM. The TGI [42] was over 100 µM, the TGI [43] was over 100 µM and the TGI [44] was over 100 µM. It also gave a TGI [45] of over 100 µM, a TGI [46] of over 100 µM and a TGI [47] of over 100 µM. For the same compound, the TGI [49] was over 100 µM, the TGI [50] was over 100 µM and the TGI [53] was over 100 µM. The TGI [54] was over 100 µM, the TGI [55] was over 100 µM and the TGI [57] was over 100 µM. It also gave a TGI [58] of over 100 µM.

In the case of `O=C1CNc2cc(N3CCCCC3)ccc2N1`, the TGI [2] is reported as over 100 µM, the TGI [3] is reported as over 100 µM and the TGI [4] is reported as over 100 µM. It also gave a TGI [5] of over 100 µM, a TGI [59] of over 100 µM and a TGI [6] of over 100 µM. It also gave a TGI [7] of over 100 µM, a TGI [8] of over 100 µM and a TGI [9] of over 100 µM. For the same compound, the TGI [11] was over 100 µM, the TGI [12] was over 100 µM and the TGI [13] was over 100 µM. For the same compound, the TGI [14] was over 100 µM, the TGI [16] was over 100 µM and the TGI [17] was 24.4 µM. It also gave a TGI [18] of over 100 µM, a TGI [19] of over 100 µM and a TGI [21] of over 100 µM. For the same compound, the TGI [22] was over 100 µM, the TGI [23] was over 100 µM and the TGI [24] was over 100 µM. It also gave a TGI [26] of over 100 µM, a TGI [27] of over 100 µM and a TGI [28] of over 100 µM. It also gave a TGI [29] of over 100 µM, a TGI [30] of over 100 µM and a TGI [31] of over 100 µM. It also gave a TGI [32] of 29.7 µM, a TGI [33] of over 100 µM and a TGI [34] of over 100 µM. The TGI [36] was over 100 µM, the TGI [37] was 50.9 µM and the TGI [38] was 37.3 µM. It also gave a TGI [39] of over 100 µM, a TGI [40] of over 100 µM and a TGI [41] of over 100 µM. For the same compound, the TGI [43] was over 100 µM, the TGI [45] was over 100 µM and the TGI [46] was over 100 µM. The TGI [48] was over 100 µM, the TGI [49] was over 100 µM and the TGI [50] was over 100 µM. It also gave a TGI [51] of over 100 µM, a TGI [52] of over 100 µM and a TGI [53] of over 100 µM. It also gave a TGI [54] of over 100 µM, a TGI [55] of over 100 µM and a TGI [56] of over 100 µM. The TGI [57] was over 100 µM and the TGI [58] was over 100 µM.

Compound `CCOC(=O)CCCOc1cc(-c2ccccc2F)nc2cc3c(cc12)OCO3` has a TGI [1] of over 100 µM, a TGI [2] of over 100 µM and a TGI [3] of over 100 µM. It also gave a TGI [4] of over 100 µM, a TGI [5] of over 100 µM and a TGI [59] of over 100 µM. The TGI [6] was 32.1 µM, the TGI [7] was over 100 µM and the TGI [8] was over 100 µM. It also gave a TGI [9] of over 100 µM, a TGI [10] of over 100 µM and a TGI [11] of over 100 µM. For the same compound, the TGI [13] was 14.5 µM, the TGI [14] was over 100 µM and the GI50 [15] was over 100 µM. The TGI [15] was over 100 µM, the TGI [16] was over 100 µM and the TGI [17] was over 100 µM. It also gave a TGI [20] of over 100 µM, a TGI [22] of over 100 µM and a TGI [26] of over 100 µM. It also gave a TGI [28] of over 100 µM, a TGI [29] of over 100 µM and a TGI [30] of 98 µM. It also gave a TGI [31] of over 100 µM, a TGI [32] of over 100 µM and a TGI [33] of over 100 µM. It also gave a TGI [34] of over 100 µM, a TGI [35] of over 100 µM and a TGI [36] of over 100 µM. It also gave a TGI [37] of over 100 µM, a GI50 [38] of 48.7 µM and a TGI [38] of over 100 µM. For the same compound, the TGI [39] was over 100 µM, the TGI [40] was over 100 µM and the TGI [41] was over 100 µM. The GI50 [42] was over 100 µM, the TGI [42] was over 100 µM and the TGI [43] was over 100 µM. The GI50 [44] was 25 µM, the TGI [44] was over 100 µM and the TGI [45] was over 100 µM. It also gave a TGI [46] of over 100 µM, a TGI [47] of over 100 µM and a GI50 [48] of 15 µM. The TGI [48] was 55.7 µM, the TGI [49] was over 100 µM and the TGI [52] was over 100 µM. For the same compound, the TGI [53] was over 100 µM, the TGI [54] was over 100 µM and the TGI [55] was over 100 µM. For the same compound, the TGI [57] was over 100 µM and the TGI [58] was over 100 µM.

Reference: PubChem BioAssay (NCI)
